Among the data in patent publication US9321760B2 (Merck Patent GmbH, priority 2011, dated 2016) are IC50 values, retold here.

Sequence of P70S6K (T412E mutant) (P23443 whole entry T412E): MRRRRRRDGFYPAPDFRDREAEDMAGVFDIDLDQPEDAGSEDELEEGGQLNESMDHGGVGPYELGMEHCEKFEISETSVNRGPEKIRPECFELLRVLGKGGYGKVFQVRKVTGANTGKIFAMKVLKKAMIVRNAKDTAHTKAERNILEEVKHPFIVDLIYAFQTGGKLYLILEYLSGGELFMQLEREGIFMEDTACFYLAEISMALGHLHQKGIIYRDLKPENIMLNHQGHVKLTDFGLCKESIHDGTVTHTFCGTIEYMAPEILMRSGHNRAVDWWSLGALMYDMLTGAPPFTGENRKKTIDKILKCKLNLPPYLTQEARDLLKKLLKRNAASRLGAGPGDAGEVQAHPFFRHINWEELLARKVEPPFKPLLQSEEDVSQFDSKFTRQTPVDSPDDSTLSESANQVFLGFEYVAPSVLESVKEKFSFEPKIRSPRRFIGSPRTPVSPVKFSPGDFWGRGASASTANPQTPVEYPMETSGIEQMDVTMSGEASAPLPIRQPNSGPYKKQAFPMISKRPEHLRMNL

This assay addresses P70S6K (T412E mutant) (Homo sapiens (Human), UniProt P23443, T412E). In words: P70S6K enzyme assay. Type of assay: biochemical. To be noted: 3 nM P70S6K T412E mutant, 24 μM ATP, 1 μM FITC-AHA-AKRRRLSSLRA-OH substrate peptide, 90 min at 25° C. As for the experimental part: The IC50 values reported for the compounds in the Experimental section were derived from the following protocol for the p70S6K enzyme assay.
P70S6K inhibitor compounds were diluted and plated in 96 well plates. A reaction mixture including the following components was then added to the compound plate to initiate the enzyme reaction; P70S6K (3 nM, T412E mutant, Millipore) was mixed with 24 μM ATP in an assay buffer containing 100 mM Hepes (pH 7.5), 5 mM MgCl2, 1 mM DTT, 0.015% Brij and 1 μM of the substrate peptide FITC-AHA-AKRRRLSSLRA-OH (derived from the S6 ribosomal protein sequence, FITC=fluorescein isothiocyanate, AHA=6-aminohexanoic acid). The reaction was incubated for 90 min at 25° C., before the addition of 10 mM EDTA to stop the reaction. The proportion of substrate and product (phosphorylated) peptide was analysed on a Caliper Life Sciences Lab Chip 3000, using a pressure of −1.4 psi, and upstream and downstream voltages of −3000 and −700 respectively. Product peaks were resolved before substrate peaks on the resulting chromatograms.
Turning to `COc1ccc(-c2c(N)ncnc2N2CCC(N)(CNC(=O)c3ccc(F)cc3F)C2)cn1` (stereo not drawn) [Example 201, N-{3-Amino-1-[6-amino-5-(6-methoxy-pyridin-3-yl)-pyrimidin-4-yl]-pyrrolidin-3-ylmethyl}-2,4-difluoro-benzamide], the IC50 (in general, the concentration that inhibits the measured activity by half) came to 9.5 nM.
For `N#CC(c1ccc(C(F)(F)F)cc1)N1CCN(c2ncnc(N)c2-c2ccc(F)cc2)CC1` (stereo not drawn) [Example 168, {4-[6-Amino-5-(4-fluoro-phenyl)-pyrimidin-4-yl]-piperazin-1-yl}-(4-trifluoromethyl-phenyl)-acetonitrile], the concentration for half-maximal inhibition (IC50) was determined as 240 nM.
In turn, `CC[C@H](NC(=O)C1(N)CCN(c2ncnc(N)c2Cl)CC1)c1ccc(Cl)cc1` [Example 215, 4-Amino-1-(6-amino-5-chloro-pyrimidin-4-yl)-piperidine-4-carboxylic acid [(S)-1-(4-chloro-phenyl)-propyl]-amide] gave an IC50 of 190 nM.
In turn, `Nc1ncnc(N2CCN(C(CN3CCCC3)c3ccc(F)cc3)CC2)c1-c1ccc(F)cc1` (stereo not drawn) [Example 75, 5-(4-Fluorophenyl)-6{4-[1-(4-fluorophenyl)-2-pyrrolidin-1-yl-ethyl]-piperazin-1-yl}-pyrimidin-4-ylamine] came in with an IC50 of 15 nM.
As to `Nc1ncnc(N2CCN(C(CN3CCC3)c3ccc(-n4ccnc4)cc3)CC2)c1-c1ccc(F)cc1` (stereo not drawn) [Example 116, 6-{4-[2-Azetidin-1-yl-1-(4-imidazol-1-yl-phenyl)-ethyl]-piperazin-1-yl}-5-(4-fluoro-phenyl)-pyrimidin-4-ylamine], 290 nM corresponded to half-maximal inhibition (IC50).
Molecule `N#CC(c1ccc(F)c(C(F)(F)F)c1)N1CCN(c2ncnc(N)c2-c2ccc(F)cc2)CC1` (stereo not drawn) [Example 154, {4-[6-Amino-5-(4-fluoro-phenyl)-pyrimidin-4-yl]-piperazin-1-yl}-(4-fluoro-3-trifluoromethyl-phenyl)-acetonitrile] yielded an IC50 of more than 1000 nM.
`C[C@H](NC(=O)C1(N)CCN(c2ncnc(N)c2Cl)CC1)c1ccc(Cl)cc1` [Example 222, 4-Amino-1-(6-amino-5-chloro-pyrimidin-4-yl)-piperidine-4-carboxylic acid [(S)-1-(4-chloro-phenyl)-ethyl]-amide] displayed an IC50 of 620 nM.
`N#Cc1ccc(C(CN2CCC2)N2CCN(c3ncnc(N)c3-c3ccc(F)cc3)CC2)cc1` (stereo not drawn) [Example 106, 4-(1-{4-[6-Amino-5-(4-fluoro-phenyl)-pyrimidin-4-yl]-piperazin-1-yl}-2-azetidin-1-yl-ethyl)-benzonitrile] gave an IC50 of 320 nM.
With `Nc1ncnc(N2CCC(C(O)c3ccc(Cl)cc3)CC2)c1-c1ccc(F)cc1` (stereo not drawn) [Example 138], it took 2.5 nM to reach half-maximal inhibition (IC50).
`Nc1ncnc(N2CCN(C(CN3CCC3)c3ccc(F)c(Cl)c3)CC2)c1-c1cn[nH]c1` (stereo not drawn) [Example 135, 6-{4-[2-Azetidin-1-yl-1-(3-chloro-4-fluoro-phenyl)-ethyl]-piperazin-1-yl}-5-(1H-pyrazol-4-yl)-pyrimidin-4-ylamine] registered an IC50 of 3600 nM.
As for `C[C@H](NC(=O)C1(N)CCN(c2ncnc(N)c2C#N)CC1)c1ccc(Cl)cc1` [Example 218, 4-Amino-1-(6-amino-5-cyano-pyrimidin-4-yl)-piperidine-4-carboxylic acid [(S)-1-(4-chloro-phenyl)-ethyl]-amide], the concentration for half-maximal inhibition (IC50) came to 200 nM.
For `N#CC(c1ccc(C(F)(F)F)nc1)N1CCN(c2ncnc(N)c2-c2ccc(F)cc2)CC1` (stereo not drawn) [Example 189, {4-[6-Amino-5-(4-fluoro-phenyl)-pyrimidin-4-yl]-piperazin-1-yl}-(6-trifluoromethyl-pyridin-3-yl)-acetonitrile], the concentration for half-maximal inhibition (IC50) came out at 140 nM.
`Nc1ncnc(N2CCC(N)(C(=O)N[C@@H](CCO)c3ccc(C(F)(F)F)cc3)CC2)c1Cl` [Example 223, 4-Amino-1-(6-amino-5-chloro-pyrimidin-4-yl)-piperidine-4-carboxylic acid [(S)-3-hydroxy-1-(4-trifluoromethyl-phenyl)-propyl]-amide] returned an IC50 of 22000 nM.
Consider `Nc1ncnc(N2CCN(C(CN3CCC3)c3ccc(C(F)(F)F)c(F)c3)CC2)c1-c1cn[nH]c1` (stereo not drawn) [Example 127, 6-{4-[2-Azetidin-1-yl-1-(3-fluoro-4-trifluoromethyl-phenyl)-ethyl]-piperazin-1-yl}-5-(1H-pyrazol-4-yl)-pyrimidin-4-ylamine], for which the IC50 was 550 nM.
As to `Nc1ncnc(N2CCC(N)(C(=O)N[C@@H](CCO)c3ccc(F)cc3)CC2)c1Cl` [Example 236, 4-Amino-1-(6-amino-5-chloro-pyrimidin-4-yl)-piperidine-4-carboxylic acid [(S)-1-(4-fluoro-phenyl)-3-hydroxy-propyl]-amide], the IC50 stood at 900 nM.
To `Nc1ncnc(N2CCN(C(CN3CCC3)c3ccc(F)c(C(F)(F)F)c3)CC2)c1-c1cn[nH]c1` (stereo not drawn) [Example 101, 6-{4-[2-Azetidin-1-yl-1-(4-fluoro-3-trifluoromethyl-phenyl)-ethyl]-piperazin-1-yl}-5-(1H-pyrazol-4-yl)-pyrimidin-4-ylamine] belongs 3800 nM; to `Nc1cc(N2CCN(C(CN3CCCC3)c3cccc(C(F)(F)F)c3)CC2)ncn1` (stereo not drawn) [Example 73, 6-{4-[1-(3-trifluoromethyl-phenyl)-2-pyrrolidin-1-yl-ethyl]-piperazin-1-yl}-pyrimidin-4-ylamine], more than 1000 nM; to `C=Cc1c(N)ncnc1N1CCC(C(O)c2ccc(F)cc2)CC1` (stereo not drawn) [Example 141, 1-6-amino-5-(vinylpyrimidin-4-yl)piperidin-4-yl-4-(fluorophenyl)methanol], 1000 nM.
For `Nc1ncnc(N2CCC(C(c3ccc(F)cc3)N3CCC(F)(F)C3)CC2)c1-c1ccc(F)cc1` (stereo not drawn) [Example 149, 5-(4-fluoropheny)-6-(4-((4-fluorophenyl)(3-difluoropyrrolidin-1-yl)methyl)piperidin-1-yl)pyrimidin-4-amine], the concentration for half-maximal inhibition (IC50) is 460 nM.
Molecule `COc1ccc([C@@H](CN2CCC2)N2CCN(c3ncnc(N)c3-c3ccc(F)cc3)CC2)cc1F` [Example 105, 6-{4-[(S)-2-Azetidin-1-yl-1-(3-fluoro-4-methoxy-phenyl)-ethyl]-piperazin-1-yl}-5-(4-fluoro-phenyl)-pyrimidin-4-ylamine] yielded an IC50 of 640 nM.
Under `COc1ccc(C(CN2CCC2)N2CCN(c3ncnc(N)c3-c3cn[nH]c3)CC2)cc1F` (stereo not drawn) [Example 95, 6-{4-[2-Azetidin-1-yl-1-(3-fluoro-4-methoxy-phenyl)-ethyl]-piperazin-1-yl}-5-(1H-pyrazol-4-yl)-pyrimidin-4-ylamine] stands 3500 nM; under `NC[C@@H](c1ccc(Cl)nc1)N1CCN(c2ncnc(N)c2-c2ccc(F)cc2)CC1` [Example 175, 6-{4-[(R)-2-Amino-1-(6-chloro-pyridin-3-yl)-ethyl]-piperazin-1-yl}-5-(4-fluoro-phenyl)-pyrimidin-4-ylamine], 2.6 nM; under `CN(C)CCOC(c1ccc(F)cc1)C1CCN(c2ncnc(N)c2-c2ccc(F)cc2)CC1` (stereo not drawn) [Example 147, 5-(4-fluorophenyl)6-(4-((4-fluorophenyl)(2-(dimethlyamino)ethoxy)methyl)piperidin-1-yl)pyrimidin-4-amine], 2 nM.
Consider `COc1ccc(C(C#N)N2CCN(c3ncnc(N)c3-c3ccc(F)cc3)CC2)cn1` (stereo not drawn) [Example 182, 2-(4-(6-amino-5-(4-fluorophenyl)pyrimidin-4-yl)piperazin-1-yl)-2-(6-methoxypyridin-3-yl)acetonitrile], for which 220 nM corresponded to half-maximal inhibition (IC50).
